Data taken from publication PMC6773864, “The functional ClpXP protease of Chlamydia trachomatis requires distinct clpP genes from separate genetic loci” (Scientific Reports, 2019).
*1 amine or outer side, *2 acyl side, *3 side chain or, on linkers, in order; H or OH if unused. Where a SMILES comes first, the peptide text is derived from it. The star is where a group is joined. AMC = Cc1cc(=O)oc2cc(N*)ccc12; Suc = O=C(CCC(=O)[*:2])[*:1]

Columns and labels:
ctClpP1P2 [1] = target: T1, ctClpP1P2 (Chlamydia trachomatis, UniProt O84712+P38002); assay: peptidase assay, fluorescence (AMC release); assay type: biochemical; details: 100 µM substrate, 3 µM ClpP, no ADEP1, pH 7.6, 32 °C
T1 construct: gene clpP1; full-length, C-terminal Strep-tag on both (kept), expressed in E. coli dAPX-1 (clpP/clpX/clpA deleted), mixed 1:1; hetero-tetradecamer

ctClpP1P2 [2] = target: T1, ctClpP1P2; assay: Suc-LY-AMC peptidase assay, fluorescence (AMC release); assay type: biochemical; details: activator; 15 µM ADEP1, 3 µM ClpP, 100 µM Suc-LY-AMC, no ClpX, pH 7.6, 32 °C; binds preferably via ClpP2 hydrophobic pocket

T1 sequence (P38002 2-192): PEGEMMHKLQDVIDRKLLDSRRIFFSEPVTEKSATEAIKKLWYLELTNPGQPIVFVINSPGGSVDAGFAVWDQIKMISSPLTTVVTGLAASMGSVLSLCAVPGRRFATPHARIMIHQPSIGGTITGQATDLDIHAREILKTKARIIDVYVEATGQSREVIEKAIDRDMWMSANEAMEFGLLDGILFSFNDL
T1 sequence (O84712 whole entry): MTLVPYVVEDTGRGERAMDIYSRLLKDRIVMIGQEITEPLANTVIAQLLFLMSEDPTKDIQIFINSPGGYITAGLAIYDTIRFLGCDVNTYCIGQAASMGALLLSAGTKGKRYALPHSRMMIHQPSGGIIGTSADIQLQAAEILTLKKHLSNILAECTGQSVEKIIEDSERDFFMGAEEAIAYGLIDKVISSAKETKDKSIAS

| Compound | peptidase assay, fluorescence (AMC release) (ctClpP1P2 [1]) | fold increase in peptidase activity at 15 μM (ctClpP1P2 [2]) |
| --- | --- | --- |
| Cc1cc(=O)oc2cc(NC(=O)[C@H](Cc3ccc(O)cc3)NC(=O)[C@H](CC(C)C)NC(=O)CCC(=O)O)ccc12 [Suc-LY-AMC] (Suc-Leu-Tyr-{AMC}) | when combined, ctClpP1P2 steadily hydrolysed Suc-LY-AMC | – |
| ADEP1 | – | > 2.5 fold |
